Laboratory results as given in publication PMC9303275, “Direct adenylation from 5′-OH-terminated oligonucleotides by a fusion enzyme containing Pfu RNA ligase and T4 polynucleotide kinase” (Nucleic Acids Research, 2022).

Columns and labels:
Pfu RNA ligase (Pfu Rnl) = biological target: T1, Pfu RNA ligase (Pfu Rnl) (Pyrococcus furiosus, UniProt Q8U3V2); experiment: oligonucleotide adenylation, denaturing urea-PAGE, SYBR Gold; assay type: biochemical
T1 construct: gene PF0353; full length, 379 aa, N-terminal 8xHis tag (not reported cut), codon optimised, pET28a, E. coli BL21(DE3), ~42 kDa, mainly homodimer
T1 sequence (Q8U3V2 1-379): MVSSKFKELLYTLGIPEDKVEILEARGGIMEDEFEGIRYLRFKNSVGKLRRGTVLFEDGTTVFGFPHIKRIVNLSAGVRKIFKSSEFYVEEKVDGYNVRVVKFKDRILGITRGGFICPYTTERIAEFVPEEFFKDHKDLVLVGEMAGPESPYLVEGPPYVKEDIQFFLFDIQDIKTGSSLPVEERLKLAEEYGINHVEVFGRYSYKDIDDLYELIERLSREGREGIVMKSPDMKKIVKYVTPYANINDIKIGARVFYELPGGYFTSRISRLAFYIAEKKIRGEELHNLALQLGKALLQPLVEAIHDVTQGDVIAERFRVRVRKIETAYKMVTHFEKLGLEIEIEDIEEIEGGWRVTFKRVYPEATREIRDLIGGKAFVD

Mth RNA ligase (Mth Rnl) = biological target: T2, Mth RNA ligase (Mth Rnl) (Methanothermobacter thermautotrophicus, UniProt O27289); experiment: oligonucleotide adenylation, denaturing urea-PAGE; assay type: biochemical; details: 5'-phosphorylated 55-nt ssDNA; commercial kit protocol
T2 construct: gene MTH_1221; commercial enzyme (New England Biolabs, 5' DNA adenylation kit)
T2 sequence (O27289 1-381): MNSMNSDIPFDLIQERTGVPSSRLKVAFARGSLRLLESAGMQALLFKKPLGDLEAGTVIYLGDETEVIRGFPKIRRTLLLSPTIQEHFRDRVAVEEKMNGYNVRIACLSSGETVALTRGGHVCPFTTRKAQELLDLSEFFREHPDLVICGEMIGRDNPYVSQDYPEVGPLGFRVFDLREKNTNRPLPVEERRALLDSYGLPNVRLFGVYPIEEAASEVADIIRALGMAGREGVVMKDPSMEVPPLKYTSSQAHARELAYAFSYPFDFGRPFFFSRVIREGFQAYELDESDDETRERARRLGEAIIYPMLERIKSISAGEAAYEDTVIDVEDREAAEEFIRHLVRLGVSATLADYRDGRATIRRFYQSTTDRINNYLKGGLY

[1] = biological target: the molecule itself; experiment: SEC; gel filtration on HiLoad 26/600 Superdex 200 pg, 50 mM phosphate, 150 mM NaCl, pH 7.0, 2.6 ml/min; elution volumes compared with molecular weight standards; each protein loaded separately

## Nc1ncnc2c1ncn2[C@@H]1O[C@H](COP(=O)(O)OP(=O)(O)O)[C@@H](O)[C@H]1O [ADP]
Pfu RNA ligase (Pfu Rnl); 5'-phosphorylated 17-nt and 55-nt ssDNA, 5 mM MgCl2, 70 mM Tris-HCl pH 7.0, 80 °C, weak activity
  oligonucleotide adenylation, denaturing urea-PAGE, SYBR Gold: weak catalytic activity with ADP and almost no catalytic activity with AMP

## Nc1ncnc2c1ncn2[C@@H]1O[C@H](COP(=O)(O)OP(=O)(O)OP(=O)(O)O)[C@@H](O)[C@H]1O [ATP]
Mth RNA ligase (Mth Rnl)
  oligonucleotide adenylation, denaturing urea-PAGE: As expected, both enzymes achieved near complete conversion
Pfu RNA ligase (Pfu Rnl); 5'-phosphorylated ssDNA, 5 mM MgCl2, 70 mM Tris-HCl pH 7.0, 5 mM DTT, 80 °C, 30 min
  oligonucleotide adenylation, denaturing urea-PAGE, SYBR Gold: Pfu Rnl showed the best activity with ATP as the adenosyl source

B1: Pfu RNA ligase (enzyme, Pyrococcus furiosus, UniProt Q8U3V2 1-379, looked up)
chain: MVSSKFKELLYTLGIPEDKVEILEARGGIMEDEFEGIRYLRFKNSVGKLRRGTVLFEDGTTVFGFPHIKRIVNLSAGVRKIFKSSEFYVEEKVDGYNVRVVKFKDRILGITRGGFICPYTTERIAEFVPEEFFKDHKDLVLVGEMAGPESPYLVEGPPYVKEDIQFFLFDIQDIKTGSSLPVEERLKLAEEYGINHVEVFGRYSYKDIDDLYELIERLSREGREGIVMKSPDMKKIVKYVTPYANINDIKIGARVFYELPGGYFTSRISRLAFYIAEKKIRGEELHNLALQLGKALLQPLVEAIHDVTQGDVIAERFRVRVRKIETAYKMVTHFEKLGLEIEIEDIEEIEGGWRVTFKRVYPEATREIRDLIGGKAFVD
notes: Pfu RNA ligase (Pfu Rnl) of Pyrococcus furiosus, encoded by the PF0353 gene, 379 amino acids, full length; No tag removal is described; also called Pfu Rnl; Q8U3V2 protein; source: E. coli BL21(DE3), purified (HisTrap FF, HiTrap Heparin HP)
[1]
  stoichiometry N: 2
